Measured values from patent publication US20150296786A1, “SYNERGISTIC COMBINATION OF A ZOXAMIDE COMPOUND AND ONE OF DCOIT OR OIT FOR DRY FILM PROTECTION” (ROHM AND HAAS COMPANY, priority 2012, published 2015).

Columns and labels:
Chlorella sp. ATCC 7516 = assay: Algal efficacy testing of dry paint films (modified ASTM 5589, 6-well plates); type: cell-based; conditions: 504 h, 3 weeks, visible algal growth vs blank, pass level ≧75%; for inhibition at 1000 ppm: total conc 1000 ppm in paint
Experimental: (§1) Sample preparation for antimicrobial testing was performed as follows:
(§2) Slurries containing 33% antimicrobial active ingredient (Zoxamide) were post added to a white, acrylic/silicone based outdoor paint free of biocides to give a total active ingredient concentration of 10000 and 1000 ppm respectively. KATHON™ 893T (100% OIT) and ROCIMA™ 200 (20% DCOIT) were post added to a white, acrylic/silicone based outdoor paint free of biocides to give a total active ingredient concentration of 10000 and 1000 ppm respectively. These paints were then diluted with an antimicrobial free acrylic/silicone based paint and mixed to prepare targeted concentrations of antimicrobial compounds for the testing. The total biocides concentrations tested were 125, 250, 500, 1000, 2000 and 5000 ppm. After biocides addition or dilution, the paints were mixed 90 seconds with the horse power shaker (AXEL 75M3372/Agitateur SO-10MI) until uniformity was achieved. Paints containing different antimicrobial compounds at the same levels were mixed together in order to obtain the desired ratio of antimicrobial compounds. After one day, the paints were applied to Schleicher & Schuell filter paper at 280μm wet film thickness and dried for 3 days at room temperature avoiding direct exposure to sunlight. Square discs (1.6 cm×1.6 cm) were cut out from each panel and were used as the substrate for algal efficacy tests. This sample size allowed for an agar border when the sample disc was placed into the well of the test plate.
(§3) Algal efficacy was tested according to modified ASTM 5589 which is a standard accelerated test method for determining resistance of various coatings (including paints) to algal defacement. To accommodate for high-throughput screening, this method was scaled down from petri dishes to 6-well plates. Bold Modified Basal Freshwater Nutrient Solution was used as growth medium. A single coated filter paper coupon was placed with a pair of sterile forceps at the center of the agar plug (on top) with the painted surface facing upwards. Algal inoculums were prepared by mixing equal concentrations (1×10^6 cfu/ml) and equal volumes of exponentially growing algae cultures.
(§4) Each well that contains a tested coupon was inoculated with 1750 μl of algal suspensions (1×10^6 cfu/ml) making sure that the whole surface (paint film as well as the agar surrounding it) was evenly covered. The plates were incubated at room temp (21° C.-25° C.) with cyclic exposure to light and dark phases, for a period of three weeks.
(§5) At the end of the three week incubation period, the samples were scored for percent inhibition regarding visible algal growth compared to the blank sample (0% inhibition).
(§6) The Synergy Index calculation was performed as follows.
(§7) The SI is calculated based on F. C. Kull et.
(§8) SI value of <1 in the formula indicates a synergism of the blended biocides exists.
(§9) The minimal targeted inhibition was set at 75%, meaning a coupon with at least 75% algal growth inhibition was considered as a pass.

[1] = system: Stichococcus bacillaris SAG 379-1a / CCAP 379/1a; assay: as above; type: cell-based; conditions: 504 h, 3 weeks, visible algal growth vs blank, pass level ≧75%
Experimental: as §1, §2, §3, §4, §5, §6, §7, §8, §9

| Compound | inhibition at 1000 ppm (Chlorella sp. ATCC 7516) [%] | inhibition at 1000 ppm ([1]; total conc 1000 ppm in paint) [%] | inhibition at 5000 ppm (Chlorella sp. ATCC 7516; total conc 5000 ppm in paint) [%] | inhibition at 5000 ppm ([1]; total conc 5000 ppm in paint) [%] |
| --- | --- | --- | --- | --- |
| CCCCCCCCn1sc(Cl)c(Cl)c1=O [DCOIT, 4,5-dichloro-2-n-octyl-4-isothiazolin-3-one] | 85 | 85 | – | – |
| CCCCCCCCn1sccc1=O [OIT, 2-n-octyl-4-isothiazolin-3-one] | 95 | – | – | – |
| CCC(C)(NC(=O)c1cc(Cl)c(C)c(Cl)c1)C(=O)CCl (centres unmarked) [Zoxamide] | – | – | 60 | 45 |
